Here are results for 26 compounds from PubChem BioAssay AID256 (DTP/NCI, 2004).

Molecules are shown by their SMILES. “And” between values parts separate entries of the source, which are not always exact repeats. Equal entries are not always repeated. Inconclusive results and toxic doses are left out.

The experiment deals with CD2F1 mice, L1210 leukemia ip, survival T/C. The experiment is described as follows: NCI In Vivo Anticancer Drug Screen. Data for tumor model L1210 Leukemia (intraperitoneal) in CD2F1 (CDF1) mice. The note with it: higher = longer survival. In outline: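 Compound-dosed mice with transplantable tumor versus matched vehicle controls; endpoint ratio T/C reported.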
[1] abbreviates: endpoint: mean survival time, dose: 12.5 mg/kg/injection, schedule: Q01DX009 (ip), vehicle: other.
Setting [2] is: endpoint: mean survival time, dose: 100.0 mg/kg/injection, schedule: Q04DX003 (ip), vehicle: saline with Tween-80.
[3] abbreviates: endpoint: mean survival time, dose: 200.0 mg/kg/injection, schedule: Q04DX003 (ip), vehicle: saline with Tween-80.
The mark [4] stands for this setting: endpoint: mean survival time, dose: 400.0 mg/kg/injection, schedule: Q04DX003 (ip), vehicle: saline with Tween-80.
The mark [5] stands for this setting: endpoint: mean survival time, dose: 100.0 mg/kg/injection, schedule: Q01DX009 (ip), vehicle: saline with Tween-80.
Where [6] appears, read: endpoint: mean survival time, dose: 200.0 mg/kg/injection, schedule: Q01DX009 (ip), vehicle: saline with Tween-80.
Setting [7] is: endpoint: mean survival time, dose: 50.0 mg/kg/injection, schedule: Q01DX009 (ip), vehicle: saline with Tween-80.

On to `CCOC(=O)C1C(=O)N(c2ccccc2)C(=O)N1Cc1ccccc1` (stereo not given), for which the T/C runs as follows: under setting [1], 98 % of control; (endpoint: mean survival time, dose: 25.0 mg/kg/injection, schedule: Q01DX009 (ip), vehicle: other) 98 % of control; (endpoint: mean survival time, dose: 50.0 mg/kg/injection, schedule: Q01DX009 (ip), vehicle: other) 97 % of control; (endpoint: mean survival time, dose: 100.0 mg/kg/injection, schedule: Q01DX009 (ip), vehicle: other) 95 % of control; (endpoint: mean survival time, dose: 200.0 mg/kg/injection, schedule: Q01DX009 (ip), vehicle: other) 86 % of control.
Turning to `CC1CNC(Cl)O1` (stereo not given), the T/C reads like this: under setting [2], 87 % of control; under setting [3], 105 % of control.
`CCOC(=O)CCC(NC(=O)c1ccc(N(C)S(=O)(=O)c2ccc(C)cc2)c(Cl)c1Cl)C(=O)OCC` (stereo not given): the T/C reads like this: under setting [2], 105 % of control; under setting [3], 91 % of control; under setting [4], 94 % of control.
With `CCOC(=O)/C=C/C(C(=O)OCC)C(=O)OCC`, the T/C was 103 % of control under setting [2], 97 % of control under setting [3] and 101 % of control under setting [4].
As to `CC(=O)OC1OC(CO)C(OC(C)=O)C(OC(C)=O)C1OC(C)=O` (stereo not given), the T/C runs as follows: (endpoint: mean survival time, dose: 100.0 mg/kg/injection, schedule: Q01DX009 (ip), vehicle: saline sonified) 97 % of control; (endpoint: mean survival time, dose: 200.0 mg/kg/injection, schedule: Q01DX009 (ip), vehicle: saline sonified) 97 % of control; (endpoint: mean survival time, dose: 400.0 mg/kg/injection, schedule: Q01DX009 (ip), vehicle: saline sonified) 98 % of control.
Consider `CCCCN(CCCC)CC(O)c1cc(-c2cc(C(O)CN(CCCC)CCCC)c3ccccc3n2)nc2ccccc12` (stereo not given), for which the T/C was 95 % of control under setting [2] and 86 % of control under setting [3].
On to `C=CCC(C#N)(CC=C)C(=O)OCC`, for which the T/C is, setting by setting: (endpoint: mean survival time, dose: 50.0 mg/kg/injection, schedule: Q01DX001 (ip), vehicle: Klucel (hydroxypropylcellulose) (HPC)) 102 % of control; (endpoint: mean survival time, dose: 100.0 mg/kg/injection, schedule: Q01DX001 (ip), vehicle: Klucel (hydroxypropylcellulose) (HPC)) 96 % of control; (endpoint: mean survival time, dose: 200.0 mg/kg/injection, schedule: Q01DX001 (ip), vehicle: Klucel (hydroxypropylcellulose) (HPC)) 102 % of control.
As to `N#Cc1cccc(N)c1`, the T/C runs as follows: under setting [5], 106 % of control; under setting [6], 94 % of control; (endpoint: mean survival time, dose: 400.0 mg/kg/injection, schedule: Q01DX009 (ip), vehicle: saline with Tween-80) 98 % of control.
For the compound `CCC(C(=O)O)C(=O)O.[NH2-].[NH2-].[Pt+2]`, the T/C (endpoint: mean survival time, dose: 12.5 mg/kg/injection, schedule: Q04DX003 (ip), vehicle: saline) is 101 % of control; the T/C (endpoint: mean survival time, dose: 200.0 mg/kg/injection, schedule: Q04DX003 (ip), vehicle: saline) is 87 % of control; the T/C (endpoint: median survival time, dose: 3.12 mg/kg/injection, schedule: Q01DX009 (ip), vehicle: saline) was 108 % of control; the T/C (endpoint: median survival time, dose: 100.0 mg/kg/injection, schedule: Q01DX009 (ip), vehicle: saline) is 95 % of control.
Consider `CCN=NNc1ccc(C)cc1`, for which the T/C by setting is: under setting [7], 114 % of control; under setting [5], 106 % of control; under setting [2], 102 % of control; under setting [3], 100 % of control.
For `COC(=O)CCC(=O)C=[N+]=[N-]`, the T/C (endpoint: mean survival time, dose: 1.5 mg/kg/injection, schedule: Q01DX009 (ip), vehicle: other) was 94 % of control; the T/C (endpoint: mean survival time, dose: 3.1 mg/kg/injection, schedule: Q01DX009 (ip), vehicle: other) was 94 % of control; the T/C (endpoint: mean survival time, dose: 6.2 mg/kg/injection, schedule: Q01DX009 (ip), vehicle: other) was 91 % of control; the T/C under setting [1] is 91 % of control.
For `CCC12CCC(=O)C=C1CCCC2=O` (stereo not given), the T/C (endpoint: mean survival time, dose: 100.0 mg/kg/injection, schedule: Q04DX003 (ip), vehicle: saline sonified) is 95 % of control.
`c1ccc(NC2=NCCO2)cc1`: the T/C is 93 % of control under setting [2] and 98 % of control under setting [3].
As to `Cc1ccc(C)c(NC(=O)NCc2ccccc2)c1`, the T/C was 97 % of control under setting [5] and 106 % of control under setting [6].
For `CC(Nc1ccccc1C(=O)O)C(=O)O` (stereo not given), the T/C reads like this: under setting [2], 102 % of control; under setting [3], 104 % of control; under setting [4], 104 % of control.
On to `O=C(O)Cc1cccnc1`, for which the T/C was 98 % of control (endpoint: mean survival time, dose: 100.0 mg/kg/injection, schedule: Q01DX009 (ip), vehicle: saline); 102 % of control (endpoint: mean survival time, dose: 200.0 mg/kg/injection, schedule: Q01DX009 (ip), vehicle: saline); 110 % of control (endpoint: mean survival time, dose: 400.0 mg/kg/injection, schedule: Q01DX009 (ip), vehicle: saline).
Turning to `CSC(=N/N=C/c1ccccc1O)SC`, the T/C by setting is: under setting [2], 98 % of control; under setting [3], 96 % of control; under setting [4], 96 % of control.
As to `CC(=O)N(C)c1ccc(S(=O)(=O)Cl)cc1`, the T/C runs as follows: (endpoint: mean survival time, dose: 100.0 mg/kg/injection, schedule: Q01DX001 (ip), vehicle: saline with Tween-80) 100 % of control; (endpoint: mean survival time, dose: 200.0 mg/kg/injection, schedule: Q01DX001 (ip), vehicle: saline with Tween-80) 105 % of control; (endpoint: mean survival time, dose: 400.0 mg/kg/injection, schedule: Q01DX001 (ip), vehicle: saline with Tween-80) 93 % of control.
In the case of `CC(C)(c1cc(Cl)c(OCCO)c(Cl)c1)c1cc(Cl)c(OCCO)c(Cl)c1`, the T/C under setting [2] is 105 % of control, the T/C under setting [3] was 102 % of control and the T/C under setting [4] is 109 % of control.
Take `COC1SCCCS1`: the T/C is, setting by setting: (endpoint: mean survival time, dose: 12.5 mg/kg/injection, schedule: Q04DX002 (ip), vehicle: saline with Tween-80) 97 % of control; (endpoint: mean survival time, dose: 25.0 mg/kg/injection, schedule: Q04DX002 (ip), vehicle: saline with Tween-80) 108 % of control; (endpoint: mean survival time, dose: 50.0 mg/kg/injection, schedule: Q04DX002 (ip), vehicle: saline with Tween-80) 105 % of control.
Consider `O=C1CN(CCN2CC(=O)N(CN3CCOCC3)C(=O)C2)CC(=O)N1CN1CCOCC1`, for which the T/C is 111 % of control (endpoint: median survival time, dose: 12.5 mg/kg/injection, schedule: Q01DX009 (ip), vehicle: water); 118 % of control (endpoint: median survival time, dose: 25.0 mg/kg/injection, schedule: Q01DX009 (ip), vehicle: water); 164 % of control (endpoint: median survival time, dose: 50.0 mg/kg/injection, schedule: Q01DX009 (ip), vehicle: water); 181 % of control and 188 % of control (endpoint: median survival time, dose: 100.0 mg/kg/injection, schedule: Q01DX009 (ip), vehicle: water); 97 % of control and 111 % of control (endpoint: median survival time, dose: 200.0 mg/kg/injection, schedule: Q01DX009 (ip), vehicle: water).
Turning to `C(#Cc1ccccn1)c1ccccn1.[Pt].c1ccc([PH+](c2ccccc2)c2ccccc2)cc1.c1ccc([PH+](c2ccccc2)c2ccccc2)cc1`, the T/C is 104 % of control (endpoint: median survival time, dose: 3.13 mg/kg/injection, schedule: Q04DX003 (ip), vehicle: distilled water + Tween-80); 105 % of control (endpoint: median survival time, dose: 6.25 mg/kg/injection, schedule: Q04DX003 (ip), vehicle: distilled water + Tween-80); 100 % of control (endpoint: median survival time, dose: 12.5 mg/kg/injection, schedule: Q04DX003 (ip), vehicle: distilled water + Tween-80); 97 % of control (endpoint: median survival time, dose: 25.0 mg/kg/injection, schedule: Q04DX003 (ip), vehicle: distilled water + Tween-80); 96 % of control (endpoint: median survival time, dose: 50.0 mg/kg/injection, schedule: Q04DX003 (ip), vehicle: distilled water + Tween-80); 94 % of control (endpoint: median survival time, dose: 100.0 mg/kg/injection, schedule: Q04DX003 (ip), vehicle: distilled water + Tween-80).
On to `CCC[CH2][Sn]1([CH2]CCC)[O]C2C(CO)OC(n3ccc(N)nc3=O)C2[O]1` (stereo not given), for which the T/C (endpoint: mean survival time, dose: 0.78 mg/kg/injection, schedule: Q01DX009 (ip), vehicle: Klucel (hydroxypropylcellulose) (HPC)) is 116 % of control; the T/C (endpoint: mean survival time, dose: 1.56 mg/kg/injection, schedule: Q01DX005 (ip), vehicle: other) is 104 % of control; the T/C (endpoint: mean survival time, dose: 1.56 mg/kg/injection, schedule: Q01DX009 (ip), vehicle: Klucel (hydroxypropylcellulose) (HPC)) was 113 % of control; the T/C (endpoint: mean survival time, dose: 3.13 mg/kg/injection, schedule: Q01DX005 (ip), vehicle: other) is 104 % of control; the T/C (endpoint: mean survival time, dose: 6.25 mg/kg/injection, schedule: Q01DX005 (ip), vehicle: other) is 113 % of control; the T/C (endpoint: mean survival time, dose: 6.25 mg/kg/injection, schedule: Q01DX009 (ip), vehicle: Klucel (hydroxypropylcellulose) (HPC)) is 115 % of control.
With `Cc1cc2c(C)c3cc(C)c(N)cc3nc2cc1N`, the T/C (endpoint: mean survival time, dose: 75.0 mg/kg/injection, schedule: Q01DX001 (ip), vehicle: saline) was 103 % of control.
As to `CSc1nc(C)cc(Cl)n1`, the T/C runs as follows: under setting [7], 94 % of control; under setting [5], 92 % of control; under setting [2], 103 % of control; under setting [6], 95 % of control; under setting [3], 97 % of control.
Take `O=c1[nH]cc(COCc2ccccc2)c(=O)[nH]1`: the T/C under setting [2] was 98 % of control, the T/C under setting [3] is 104 % of control and the T/C under setting [4] was 96 % of control.
